This note sets out measurements from PubChem BioAssay AID2083 (Sanford-Burnham Center for Chemical Genomics, 2009).

In this test the target is Dual specificity protein phosphatase 1 (Homo sapiens) (UniProt P28562). The test can be described thus: inhibitors of DUSP1 phosphatase activity – biochemical, DiFMUP, fluorescence, selectivity assay for VHR1 inhibitor project, SAR follow-up (AID 2083). Conditions: recombinant MKP-1, DiFMUP fluorescence.
Dual specificity protein phosphatase 1 (Homo sapiens), sequence (P28562 whole entry, looked up): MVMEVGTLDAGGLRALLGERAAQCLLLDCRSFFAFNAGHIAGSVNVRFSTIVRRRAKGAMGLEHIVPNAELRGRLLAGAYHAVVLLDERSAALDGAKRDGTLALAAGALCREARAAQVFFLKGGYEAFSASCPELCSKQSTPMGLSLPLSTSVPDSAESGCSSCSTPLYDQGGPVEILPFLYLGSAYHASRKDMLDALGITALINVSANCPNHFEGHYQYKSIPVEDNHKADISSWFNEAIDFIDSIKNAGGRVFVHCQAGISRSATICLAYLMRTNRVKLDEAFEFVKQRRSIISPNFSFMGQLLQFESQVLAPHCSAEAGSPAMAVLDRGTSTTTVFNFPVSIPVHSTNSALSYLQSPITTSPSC
By IC50 is commonly meant the midpoint of a concentration-inhibition curve. Consider `O=C1/C(=C/c2cn(-c3ccccc3)nc2-c2ccc(OCc3ccccc3Cl)cc2)SC(=S)N1CCS(=O)(=O)O`, for which the IC50 was 470 nM.

Turning to `O=C1/C(=C/c2cn(-c3ccccc3)nc2-c2ccc(OCc3ccc(Cl)cc3)cc2)SC(=S)N1CCS(=O)(=O)O`, the IC50 was 460 nM.

Turning to `O=C1/C(=C/c2cn(-c3ccccc3)nc2-c2ccc(OCc3ccccc3F)cc2)SC(=S)N1CCS(=O)(=O)O`, the IC50 is 520 nM.

With `O=C1/C(=C/c2cn(-c3ccccc3)nc2-c2ccc(S(=O)(=O)N3CCCCC3)cc2)SC(=S)N1CCS(=O)(=O)O`, the IC50 was 2800 nM.

Consider `O=C1/C(=C/c2cn(-c3ccccc3)nc2-c2ccc(OCc3ccccc3)cc2)SC(=S)N1CCS(=O)(=O)O`, for which the IC50 is 780 nM.
